Activity calls are given as the source filed them. No cut-off for these calls is given here.
Assays:
[1] = target: Tyrosine-protein kinase Yes (Homo sapiens, UniProt P07947); test: Inhibition of human recombinant YES using biotinyl-beta amyloid beta amyloid beta AYQAEENTYDEYEN as substrate measured after 30 mins in the presence of ATP by HTRF assay
[2] = target: T1, Tyrosine-protein kinase BTK (Homo sapiens, UniProt Q06187); test: Inhibition of BTK in human Ramos cells assessed as reduction in PLCgamma-2 phosphorylation at Try1217 residue at 1000 nM after1 hr by Western blot analysis; format: cell-based
[3] = target: Receptor tyrosine-protein kinase erbB-4 (Homo sapiens, UniProt Q15303); test: Inhibition of HER4 (unknown origin)
Mus musculus [4] = test: Antiarthritic activity in DBA1/J mouse model of collagen-induced arthritis assessed as reduction in bone erosion at 60 mg/kg, po qd by micro-CT analysis; format: functional, organism-based
[5] = target: T1, Tyrosine-protein kinase BTK; test: Inhibition of BTK auto phosphorylation at Tyr223 residue in human JeKo1 cells at 100 nM measured after 1 hr by Western blot analysis; format: cell-based
[6] = target: Cytoplasmic tyrosine-protein kinase BMX (Homo sapiens, UniProt P51813); test: Inhibition of BMX (unknown origin)
Daudi = test: Antiproliferative activity against human Daudi cells; format: functional, cell-based; details: Homo sapiens, Daudi
Mus musculus [7] = test: Antiarthritic activity in DBA1/J mouse model of collagen-induced arthritis assessed as reduction in bone erosion at 30 mg/kg, po qd by H and E staining based assay; format: functional, organism-based
[8] = target: T1, Tyrosine-protein kinase BTK; test: Inhibition of BTK (unknown origin) in the presence of ATP by caliper mobility shift assay
Mus musculus [9] = test: Antiarthritic activity in DBA1/J mouse model of collagen-induced arthritis assessed as reduction in cellular infiltration at 60 mg/kg, po qd by Safranin O-staining based assay; format: functional, organism-based
[10] = Toxicity in DBA1/J mouse model of collagen-induced arthritis assessed as effect on body weight at 30 to 60 mg/kg, po qd; format: organism-based; details: in vivo
[11] = target: T1, Tyrosine-protein kinase BTK; test: Inhibition of BTK (unknown origin) at 0.1 uM in the presence of ATP by caliper mobility shift assay relative to control
[12] = target: Tyrosine-protein kinase Lck (Homo sapiens, UniProt P06239); test: Inhibition of human recombinant LCK using Ulight-Poly GAT[EAY(1:1:1) as substrate measured after 10 mins in the presence of ATP by LANCE method
Mus musculus [13] = test: Antiarthritic activity in DBA1/J mouse model of collagen-induced arthritis assessed as reduction in reduction in paw thickness at 30 mg/kg to 60 mg/kg, po qd; format: functional, organism-based
[14] = target: Tyrosine-protein kinase Lyn (Homo sapiens, UniProt P07948); test: Inhibition of human recombinant LYN using biotinyl-beta amyloid beta amyloid beta AKVEKIGEGTYGVVYK as substrate measured after 120 mins in the presence of ATP by HTRF assay
[15] = target: Tyrosine-protein kinase TXK (Homo sapiens, UniProt P42681); test: Inhibition of human recombinant TXK using Ulight-Poly GAT[EAY(1:1:1) as substrate measured after 30 mins in the presence of ATP by LANCE method
[16] = target: Tyrosine-protein kinase JAK3 (Homo sapiens, UniProt P52333); test: Inhibition of human recombinant JAK3 using Ulight-CAGAGAIETDKEYYTVKD measured after 60 mins in the presence of ATP by LANCE method
Mus musculus [17] = test: Antiarthritic activity in DBA1/J mouse model of collagen-induced arthritis assessed as reduction in joint damage at 60 mg/kg, po qd by H and E staining based assay; format: functional, organism-based
[18] = target: Tyrosine-protein kinase Fgr (Homo sapiens, UniProt P09769); test: Inhibition of human recombinant FGR using Ulight-TK peptide as substrate measured after 60 mins in the presence of ATP by LANCE method
[19] = target: Tyrosine-protein kinase ITK/TSK (Homo sapiens, UniProt Q08881); test: Inhibition of human recombinant ITK using Ulight-TK peptide as substrate measured after 30 mins in the presence of ATP by LANCE method
[20] = target: Tyrosine-protein kinase Fyn (Homo sapiens, UniProt P06241); test: Inhibition of human recombinant FYN using biotinyl-beta amyloid beta amyloid beta AYQAEENTYDEYEN as substrate measured after 60 mins in the presence of ATP by HTRF assay
[21] = target: T1, Tyrosine-protein kinase BTK; test: Inhibition of BTK auto phosphorylation at Tyr223 residue in human Daudi cells at 100 nM measured after 1 hr by Western blot analysis; format: cell-based
[22] = target: Tyrosine-protein kinase Tec (Homo sapiens, UniProt P42680); test: Inhibition of TEC (unknown origin)
[23] = target: Receptor tyrosine-protein kinase erbB-2 (Homo sapiens, UniProt P04626); test: Inhibition of human recombinant HER2 using biotinyl-beta amyloid beta amyloid beta AAEEEEYFELVAKKK measured after 10 mins in the presence of ATP by HTRF assay
[24] = target: T1, Tyrosine-protein kinase BTK; test: Inhibition of BTK auto phosphorylation at Tyr223 residue in human Ramos cells at 100 nM measured after 1 hr by Western blot analysis; format: cell-based
[25] = target: T1, Tyrosine-protein kinase BTK; test: Inhibition of BTK in human JeKo1 cells assessed as reduction in PLCgamma-2 phosphorylation at Try1217 residue at 1000 nM after1 hr by Western blot analysis; format: cell-based
Mus musculus [26] = test: Antiarthritic activity in DBA1/J mouse model of collagen-induced arthritis assessed as reduction in cartilage damage at 30 mg/kg, po qd by H and E staining based assay; format: functional, organism-based
JeKo-1 = test: Antiproliferative activity against human JeKo1 cells; format: functional, cell-based; details: Homo sapiens, JeKo-1
[27] = target: T1, Tyrosine-protein kinase BTK; test: Inhibition of BTK in human Daudi cells assessed as reduction in PLCgamma-2 phosphorylation at Try1217 residue at 1000 nM after1 hr by Western blot analysis; format: cell-based
[28] = target: Proto-oncogene tyrosine-protein kinase Src (Homo sapiens, UniProt P12931); test: Inhibition of human recombinant SRC using Ulight-Poly GAT[EAY(1:1:1) as substrate measured after 10 mins in the presence of ATP by LANCE method
[29] = target: Tyrosine-protein kinase HCK (Homo sapiens, UniProt P08631); test: Inhibition of HCK (unknown origin)
[30] = target: T1, Tyrosine-protein kinase BTK; test: Inhibition of BTK (unknown origin) at 1 uM in the presence of ATP by caliper mobility shift assay relative to control
Mus musculus [31] = test: Antiarthritic activity in DBA1/J mouse model of collagen-induced arthritis assessed as reduction in clinical arthritic score at 30 mg/kg to 60 mg/kg, po qd; format: functional, organism-based
[32] = target: Epidermal growth factor receptor (Homo sapiens, UniProt P00533); test: Inhibition of human recombinant EGFR using Ulight-CAGAGAIETDKEYYTVKD measured after 15 mins in the presence of ATP by LANCE method
Mus musculus [33] = test: Antiarthritic activity in collagen-induced DBA1/J mouse arthritis model assessed as reduction injoint inflammation at 30 mg/kg or 60 mg/kg, po qd cotreated with ibrutinib at 12.5 mg/kg by micro CT analysis; format: functional, organism-based
[34] = target: Tyrosine-protein kinase Blk (Homo sapiens, UniProt P51451); test: Inhibition of BLK (unknown origin)
Ramos = test: Antiproliferative activity against human Ramos cells; format: functional, cell-based; details: Homo sapiens, Ramos
Mus musculus [35] = test: Antiarthritic activity in DBA1/J mouse model of collagen-induced arthritis assessed as reduction in bone erosion at 12.5 mg/kg, po qd by H and E staining based assay; format: functional, organism-based
Mus musculus [36] = test: Antiarthritic activity in DBA1/J mouse model of collagen-induced arthritis assessed as reduction in cartilage damage at 12.5 mg/kg, po qd by H and E staining based assay; format: functional, organism-based

T1 sequence (Q06187 whole entry): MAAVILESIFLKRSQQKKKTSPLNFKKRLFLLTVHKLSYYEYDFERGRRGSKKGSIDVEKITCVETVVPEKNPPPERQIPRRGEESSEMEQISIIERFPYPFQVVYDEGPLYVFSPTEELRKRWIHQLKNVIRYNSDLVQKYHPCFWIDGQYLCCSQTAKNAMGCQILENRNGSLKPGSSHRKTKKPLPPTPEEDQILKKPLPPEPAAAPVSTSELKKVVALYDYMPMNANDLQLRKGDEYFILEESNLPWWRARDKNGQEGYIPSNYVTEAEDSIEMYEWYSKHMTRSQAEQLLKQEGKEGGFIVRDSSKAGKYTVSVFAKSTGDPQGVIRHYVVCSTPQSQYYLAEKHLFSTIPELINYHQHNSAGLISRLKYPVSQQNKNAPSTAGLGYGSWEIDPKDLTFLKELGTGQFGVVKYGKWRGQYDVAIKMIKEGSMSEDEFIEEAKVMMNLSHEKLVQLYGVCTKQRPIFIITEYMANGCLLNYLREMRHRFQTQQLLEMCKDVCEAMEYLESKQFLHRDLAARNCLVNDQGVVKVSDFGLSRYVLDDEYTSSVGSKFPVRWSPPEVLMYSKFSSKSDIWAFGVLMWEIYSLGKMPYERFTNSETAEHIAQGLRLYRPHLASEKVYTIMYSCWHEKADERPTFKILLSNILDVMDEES
Chain of Tyrosine-protein kinase Lyn (P07948 whole entry): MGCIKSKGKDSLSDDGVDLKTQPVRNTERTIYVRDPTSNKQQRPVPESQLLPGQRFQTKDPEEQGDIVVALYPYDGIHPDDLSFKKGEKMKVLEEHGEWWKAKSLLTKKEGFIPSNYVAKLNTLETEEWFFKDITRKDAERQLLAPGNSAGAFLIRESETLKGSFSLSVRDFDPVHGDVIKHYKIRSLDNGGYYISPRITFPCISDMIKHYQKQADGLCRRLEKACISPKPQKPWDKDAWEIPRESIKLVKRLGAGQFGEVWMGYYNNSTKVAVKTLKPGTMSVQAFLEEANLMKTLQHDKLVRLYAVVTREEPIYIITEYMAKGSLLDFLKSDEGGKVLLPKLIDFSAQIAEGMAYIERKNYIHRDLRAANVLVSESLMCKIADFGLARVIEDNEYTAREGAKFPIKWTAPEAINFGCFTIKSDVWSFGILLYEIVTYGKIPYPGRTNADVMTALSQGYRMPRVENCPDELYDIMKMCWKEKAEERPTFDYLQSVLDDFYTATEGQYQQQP
Chain of Tyrosine-protein kinase Tec (P42680 whole entry): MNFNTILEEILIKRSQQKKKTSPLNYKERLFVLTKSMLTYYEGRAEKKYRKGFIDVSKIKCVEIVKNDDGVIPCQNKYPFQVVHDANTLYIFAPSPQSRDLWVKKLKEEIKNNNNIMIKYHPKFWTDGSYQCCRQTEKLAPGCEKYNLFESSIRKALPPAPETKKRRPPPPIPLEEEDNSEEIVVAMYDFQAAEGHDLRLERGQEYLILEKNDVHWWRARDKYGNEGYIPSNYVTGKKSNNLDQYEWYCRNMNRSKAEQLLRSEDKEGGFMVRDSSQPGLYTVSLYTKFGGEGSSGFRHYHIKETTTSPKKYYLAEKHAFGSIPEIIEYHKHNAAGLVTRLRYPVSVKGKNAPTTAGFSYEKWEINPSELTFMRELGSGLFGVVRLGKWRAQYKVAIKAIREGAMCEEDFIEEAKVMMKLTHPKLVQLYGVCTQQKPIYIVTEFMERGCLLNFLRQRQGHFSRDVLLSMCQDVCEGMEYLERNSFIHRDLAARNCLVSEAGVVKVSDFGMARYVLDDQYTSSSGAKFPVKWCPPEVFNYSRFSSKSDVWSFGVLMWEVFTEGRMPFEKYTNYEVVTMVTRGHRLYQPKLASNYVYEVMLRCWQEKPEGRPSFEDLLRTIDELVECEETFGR
Chain of Epidermal growth factor receptor (P00533 whole entry): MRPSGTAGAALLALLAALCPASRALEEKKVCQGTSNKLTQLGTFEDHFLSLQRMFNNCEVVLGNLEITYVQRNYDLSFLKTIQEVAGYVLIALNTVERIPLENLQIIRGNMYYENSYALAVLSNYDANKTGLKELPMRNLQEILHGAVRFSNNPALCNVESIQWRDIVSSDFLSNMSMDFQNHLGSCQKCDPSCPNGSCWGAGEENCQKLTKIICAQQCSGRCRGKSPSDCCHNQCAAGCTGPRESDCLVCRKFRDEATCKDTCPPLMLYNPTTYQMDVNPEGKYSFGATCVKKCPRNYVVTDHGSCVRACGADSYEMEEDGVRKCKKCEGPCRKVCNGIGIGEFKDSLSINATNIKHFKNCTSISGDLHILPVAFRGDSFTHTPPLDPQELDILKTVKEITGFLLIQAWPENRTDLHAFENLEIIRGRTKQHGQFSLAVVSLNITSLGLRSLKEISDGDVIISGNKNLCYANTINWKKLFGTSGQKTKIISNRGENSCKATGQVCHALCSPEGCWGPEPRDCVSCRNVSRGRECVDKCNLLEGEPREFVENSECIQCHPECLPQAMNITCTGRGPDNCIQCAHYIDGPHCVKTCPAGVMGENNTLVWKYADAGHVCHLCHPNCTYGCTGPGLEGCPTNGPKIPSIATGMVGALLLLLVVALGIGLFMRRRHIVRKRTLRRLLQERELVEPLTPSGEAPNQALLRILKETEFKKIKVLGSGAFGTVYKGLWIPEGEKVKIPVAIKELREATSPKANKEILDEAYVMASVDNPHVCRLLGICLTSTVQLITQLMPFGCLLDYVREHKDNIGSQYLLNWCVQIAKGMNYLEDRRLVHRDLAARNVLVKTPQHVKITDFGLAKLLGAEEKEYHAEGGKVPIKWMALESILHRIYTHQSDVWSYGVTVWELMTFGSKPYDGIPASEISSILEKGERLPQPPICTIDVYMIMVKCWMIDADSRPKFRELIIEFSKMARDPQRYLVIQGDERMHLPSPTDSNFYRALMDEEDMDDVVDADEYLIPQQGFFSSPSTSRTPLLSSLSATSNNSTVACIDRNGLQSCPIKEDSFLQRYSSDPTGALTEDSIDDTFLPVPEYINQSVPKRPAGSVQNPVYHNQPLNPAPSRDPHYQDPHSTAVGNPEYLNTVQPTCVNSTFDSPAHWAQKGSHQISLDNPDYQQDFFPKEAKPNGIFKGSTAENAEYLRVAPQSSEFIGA
Chain of Proto-oncogene tyrosine-protein kinase Src (P12931 2-536 limits assumed): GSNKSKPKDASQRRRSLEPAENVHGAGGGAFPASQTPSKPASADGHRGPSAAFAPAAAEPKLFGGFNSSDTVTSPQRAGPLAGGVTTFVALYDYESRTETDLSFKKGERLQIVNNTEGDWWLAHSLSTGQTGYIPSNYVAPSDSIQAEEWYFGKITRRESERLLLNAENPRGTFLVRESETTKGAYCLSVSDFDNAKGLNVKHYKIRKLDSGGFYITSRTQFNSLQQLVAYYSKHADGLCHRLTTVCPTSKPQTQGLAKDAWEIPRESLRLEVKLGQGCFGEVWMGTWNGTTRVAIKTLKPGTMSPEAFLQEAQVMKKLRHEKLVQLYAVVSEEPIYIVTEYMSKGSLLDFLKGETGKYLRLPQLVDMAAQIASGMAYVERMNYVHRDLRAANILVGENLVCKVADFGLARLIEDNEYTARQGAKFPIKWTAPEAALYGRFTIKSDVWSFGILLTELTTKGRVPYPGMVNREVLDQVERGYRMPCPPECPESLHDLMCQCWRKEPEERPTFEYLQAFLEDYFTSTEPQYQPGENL
Chain of Tyrosine-protein kinase Blk (P51451 whole entry): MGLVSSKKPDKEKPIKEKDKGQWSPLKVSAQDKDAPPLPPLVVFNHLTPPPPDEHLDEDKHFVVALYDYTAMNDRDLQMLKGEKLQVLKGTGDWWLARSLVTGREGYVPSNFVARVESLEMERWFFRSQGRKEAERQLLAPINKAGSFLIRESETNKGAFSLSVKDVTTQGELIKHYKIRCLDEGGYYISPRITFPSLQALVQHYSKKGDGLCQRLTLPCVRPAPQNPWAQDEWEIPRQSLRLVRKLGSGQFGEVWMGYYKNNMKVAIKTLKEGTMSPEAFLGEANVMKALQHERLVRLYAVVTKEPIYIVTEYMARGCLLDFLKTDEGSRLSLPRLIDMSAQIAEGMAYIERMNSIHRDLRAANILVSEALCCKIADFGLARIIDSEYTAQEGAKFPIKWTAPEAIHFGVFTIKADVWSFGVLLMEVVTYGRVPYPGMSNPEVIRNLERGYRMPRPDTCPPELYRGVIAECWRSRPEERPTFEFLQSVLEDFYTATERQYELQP
Chain of Cytoplasmic tyrosine-protein kinase BMX (P51813 whole entry): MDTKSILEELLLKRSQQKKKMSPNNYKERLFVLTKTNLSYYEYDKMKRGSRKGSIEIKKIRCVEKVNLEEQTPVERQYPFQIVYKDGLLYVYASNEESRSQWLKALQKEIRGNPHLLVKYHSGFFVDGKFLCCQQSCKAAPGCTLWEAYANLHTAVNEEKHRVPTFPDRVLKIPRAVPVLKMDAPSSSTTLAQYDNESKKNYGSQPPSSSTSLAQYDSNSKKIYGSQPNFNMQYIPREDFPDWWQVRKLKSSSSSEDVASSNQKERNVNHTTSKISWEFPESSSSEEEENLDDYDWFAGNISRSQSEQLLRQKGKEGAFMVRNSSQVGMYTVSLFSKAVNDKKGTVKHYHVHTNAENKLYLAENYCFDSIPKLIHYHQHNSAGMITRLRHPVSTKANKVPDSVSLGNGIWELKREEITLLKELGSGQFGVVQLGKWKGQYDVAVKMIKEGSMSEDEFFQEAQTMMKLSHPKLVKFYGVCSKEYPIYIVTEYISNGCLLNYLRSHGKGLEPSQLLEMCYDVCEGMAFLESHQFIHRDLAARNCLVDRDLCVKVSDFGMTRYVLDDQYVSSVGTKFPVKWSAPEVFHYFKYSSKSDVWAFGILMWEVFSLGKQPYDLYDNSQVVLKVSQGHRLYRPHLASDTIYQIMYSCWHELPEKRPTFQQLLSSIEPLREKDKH

Nc1ncnc2c1c(-c1ccc(Oc3ccccc3)cc1)cn2C[C@H]1CCCN1C[C@@H]1CO1
IC50 [1]: 86 nM | inhibition [2]: Active | IC50 [3]: 385 nM | Activity (Mus musculus [4]): Active | inhibition [5]: Active | IC50 [6]: 83 nM | IC50 (Daudi): 7040 nM | Activity (Mus musculus [7]): Active | IC50 [8]: 3 nM | Activity (Mus musculus [9]): Active | Activity [10]: Non-Toxic | inhibition [11]: 96.6% | IC50 [12]: 31 nM | Activity (Mus musculus [13]): Dose-dependent effect | IC50 [14]: 10 nM | IC50 [15]: 358 nM | IC50 [16]: > 1000 nM | Activity (Mus musculus [17]): Active | IC50 [18]: 28 nM | IC50 [19]: > 1000 nM | IC50 [20]: 232 nM | inhibition [21]: Active | IC50 [22]: 44 nM | IC50 [23]: > 1000 nM | inhibition [24]: Active | inhibition [25]: Active | Activity (Mus musculus [26]): Active | IC50 (JeKo-1): 11100 nM | inhibition [27]: Active | IC50 [28]: 123 nM | IC50 [29]: 33 nM | inhibition [30]: 99.8% | Activity (Mus musculus [31]): Dose-dependent effect | IC50 [32]: > 1000 nM | Activity (Mus musculus [33]): Dose-dependent effect | IC50 [34]: 10 nM | IC50 (Ramos): 8520 nM

Nc1ncnc2c1c(-c1ccc(Oc3ccccc3)cc1)cn2[C@H]1CCN(C[C@@H]2CO2)C1
IC50 (Daudi): 5480 nM | IC50 [8]: 31.1 nM | inhibition [11]: 79.1% | IC50 (JeKo-1): 1480 nM | inhibition [30]: 98.1% | IC50 (Ramos): 6710 nM

CC1(CN2CC[C@H](n3cc(-c4ccc5c(c4)OCO5)c4c(N)ncnc43)C2)COC1
IC50 (Daudi): 44700 nM | IC50 [8]: > 500 nM | inhibition [11]: 13.9% | IC50 (JeKo-1): 19000 nM | inhibition [30]: 36.1% | IC50 (Ramos): 20400 nM

NC(=O)CN1CC[C@H](n2cc(-c3ccc4c(c3)OCO4)c3c(N)ncnc32)C1
IC50 (Daudi): 3450 nM | IC50 [8]: > 500 nM | inhibition [11]: 12.6% | IC50 (JeKo-1): 4980 nM | inhibition [30]: 48.6% | IC50 (Ramos): 13300 nM

Nc1ncnc2c1c(-c1ccc3c(c1)OCO3)cn2[C@H]1CCN(C2COC2)C1
IC50 (Daudi): > 50000 nM | IC50 [8]: > 500 nM | inhibition [11]: 19.7% | IC50 (JeKo-1): > 50000 nM | inhibition [30]: 52% | IC50 (Ramos): > 50000 nM

C=CC(=O)N1CCC[C@@H](n2nc(-c3ccc(Oc4ccccc4)cc3)c3c(N)ncnc32)C1 [IBRUTINIB]
Activity (Mus musculus [35]): Active | IC50 (Daudi): 3920 nM | IC50 (JeKo-1): 1050 nM | Activity (Mus musculus [36]): inactive | IC50 (Ramos): 5010 nM

Nc1ncnc2c1c(-c1ccc3c(c1)OCO3)cn2[C@@H]1CCN(C[C@H]2CO2)C1
IC50 (Daudi): 53800 nM | IC50 [8]: > 500 nM | inhibition [11]: 15.2% | IC50 (JeKo-1): 32500 nM | inhibition [30]: 42% | IC50 (Ramos): > 50000 nM
